These results are taken from patent US11643413B2, “9-(2-oxacycloalkyl)-9H-purine-2,6-diamine derivatives and their use for the treatment of skin disorders” (UNIVERZITA PALACKEHO V OLOMOUCI, priority 2017, dated 2023).

One data set deals with Wistar rats. The data set can be described thus: Acute dermal toxicity. Type of data set: in vivo. As to the method: The test substance 114 was tested for acute dermal toxicity using Wistar rats. Testing was performed according to ČSN EN ISO 10993-11: Biologické hodnoceni zdravotnických prostředků—část 11: Zkoušky na systémovou toxicitu and according to OECD Test Guideline No. 402 Acute Dermal Toxicity Adopted 24 Feb. 1987. The study was performed as limit test: two groups of animals—5 males and 5 females at the dose of 1000 mg/kg of body weight. The pre-test was performed with 1 male and 1 female from each group. After the pilot experiment, the other animals of the group were dosed. The test substance in delivered form was applied on the shaved skin of the test animals for 24 hours. The test animals were observed 14 days after exposure to the test substance, afterwards they were sacrificed, and the necropsy for macroscopic examination of the organs was performed. […] The test substance toxicity was evaluated on the basis of mortality, body weight changes, and clinical signs of toxicity during the observation period and necropsy findings at the end of the study. According to the results of study, the value of Maximum Tolerated Dose (dermal) of the test substance for rats of both sexes is higher than 1000 mg/kg of body weight.

Another data set concerns NIH3T3 fibroblasts. The data set can be described thus: Peroxidation of membrane lipids, MDA by TBA method. The conditions noted are these: FW = fresh weight. Type of data set: cell-based, mouse. How it is done:
A typical symptom associated with aging is the direct consequence of increased concentrations of reactive oxygen species and lipid peroxidation. […] MDA levels were measured using thiobarbituric acid (TBA method). […] The crude extract was centrifuged at 10,000×g for 5 minutes and 100 μl aliquots of the supernatant were mixed with 100 μl of 0.5% (w/v) TBA containing 0.1% (w/v) trichloroacetic acid. The resulting solution was then incubated for 30 min at 95° C. The samples were rapidly cooled on ice and centrifuged for 5 minutes at 1000×g. […] The newly prepared derivatives of the general formula thus have a protective function against the negative effects of reactive oxygen species that accumulate strongly in the tissues.

Data set [1] in a line: Calcein AM cytotoxicity, B10A.4 (first column). The conditions noted are these: mouse, B10A.4 immortalized bone marrow macrophages.
From the text: One of the parameters used, as the basis for cytotoxicity assays, is the metabolic activity of viable cells. For example, a microtiter assay, which uses the Calcein AM, is now widely used to quantitate cell proliferation and cytotoxicity. […] Because only metabolically active cells cleave Calcein AM, these assays detect viable cells exclusively. The quantity of reduced Calcein AM corresponds to the number of vital cells in the culture.
Mouse fibroblasts NIH3T3; mouse immortalized bone marrow macrophages B2.4 and B10A.4, and BJ (human foreskin fibroblasts) were used for routine screening of compounds. The cells were maintained in Nunc/Corning 80 cm^2 plastic tissue culture flasks and cultured in cell culture medium (DMEM with 5 g/l glucose, 2 mM glutamine, 100 U/ml penicillin, 100 μg/ml streptomycin, 10% fetal calf serum and sodium bicarbonate).
The cell suspensions that were prepared and diluted according to the particular cell type and the expected target cell density (2.500-30.000 cells per well based on cell growth characteristics) were added by pipette (80 μl) into 96/well microtiter plates. Inoculates were allowed a pre-incubation period of 24 hours at 37° C. and 5% CO2 for stabilisation. Four-fold dilutions of the intended test concentration were added at time zero in 20 μl aliquots to the microtiter plate wells. Usually, the compound tested was evaluated at six 4-fold dilutions. […] All compound concentrations were examined in duplicates. Incubations of cells with the tested compounds lasted for 72 hours at 37° C., in 5% CO2 atmosphere and 100% humidity. At the end of the incubation period, the cells were assayed by using Calcein AM. Ten microliters of the stock solution were pipetted into each well and incubated for 1 hour. Fluorescence (FD) was measured with the Labsystem FIA Reader Fluoroscan Ascent (UK).
For data set [2], the system named is Escherichia coli WP2 uvrA strain. The data set can be described thus: Ames test (Bacterial Reverse Mutation Test), E. coli. Type of data set: cell-based. The conditions noted are these: 10-1000 μg per plate; without as well as with metabolic activation. How it is done:
The test substance was (114) assayed for the mutagenicity by the Bacterial Reverse Mutation Test. The performed test was based on EU method B.13/14 Mutagenicity—Reverse mutation test using bacteria, which is analogous to the OECD Test Guideline No. 471. Four indicator Salmonella typhimurium strains TA 98, TA 100, TA 1535, TA 1537 and one indicator Escherichia coli WP2 uvrA strain were used. The test substance was dissolved in dimethylsulfoxide (DMSO) and assayed in doses of 10-1000 μg per plate, which were applied to plates in volume of 0.1 mL. Experiments were performed without as well as with metabolic activation with a supernatant of rat liver and a mixture of cofactors. The working procedure described is in accordance with the documents Method B.13/14, Mutagenicity: Reverse Mutation Test Using Bacteria, Council Regulation (EC) No. 440/2008. Published in O.J. L 142, 2008 and OECD Test Guideline 471, Bacterial Reverse Mutation Test. Adopted Jul. 21, 1997. In the arrangement given above, the test substance was non-mutagenic for all the used tester strains without as well as with metabolic activation.

Molecules are shown by their SMILES. Where only a bound is given, the exact number is not on record here.

Take `CN(C)c1nc(NCc2ccco2)c2ncn(C3CCCCO3)c2n1` (centres unmarked) [Compound 114, 2-(Dimethylamino)-6-furfurylamino-9-(tetrahydro-2H-pyran-2-yl)-9H-purine]: the mortality result in the data set on Wistar rats (1000 mg/kg of body weight dermal, 14 days observation) is given as “did not cause death of animals”. The “Maximum Tolerated Dose (dermal)” value in the data set on Wistar rats (24 hours on shaved skin, rats of both sexes) is “higher than 1000 mg/kg of body weight”. The compound also returned an MDA with NIH3T3 fibroblasts of 8.8 nmol/g FW. For the same compound, in data set [1], the IC50 at 72 h was > 167 µM. Further, the mutagenicity result in data set [2] was “non-mutagenic”.

For orientation: IC50 means the concentration needed to halve the response being measured.
